Laboratory results: paper PMC10831120, “Nitric oxide synthase-guided genome mining identifies a cytochrome P450 enzyme for olefin nitration in bacterial specialized metabolism” (Synthetic and Systems Biotechnology, 2024)

Target: T1, Laj2 (cytochrome P450)
T1 construct: His6-tagged Laj2 (405 aa), expressed in E. coli
Assay: UV-vis difference spectral titration (type I binding spectra), one-site fit; nitration turnover also shown by LC-MS
Design: species or system Streptomyces qinglanensis

C/C=C(C)/C=C/C=C\C=C(\C)C(O)C(C)(C)C(=O)NC/C=C/C=C/C(O)C(C)CC(OC)C1(O)C(C)C(=O)N(C)C12COC2=O (stereo not shown) [compound 4, denitrolajollamycin]
Kd: ~60 µM
